From article PMC10999543, “Identification of kinase modulators as host-directed therapeutics against intracellular methicillin-resistant Staphylococcus aureus” (Frontiers in Cellular and Infection Microbiology, 2024) come the findings set out here.

Where two headings read alike, the source gives them in different places.

The subject of data set [1] is intracellular MRSA. Format: cell-based, Staphylococcus aureus. The note with it: for %GFP+ rep 1 / z-scoreMRSA+ rep 1: replicate 1; for %GFP+ rep 2 / z-scoreMRSA+ rep 2: replicate 2; for %GFP+ rep 3 / z-scoreMRSA+ rep 3: replicate 3; for z-scoreMRSA+ mean: mean of 3 replicates. An outline of the steps:
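HeLa cells infected with GFP-MRSA (MOI ~6.8), gentamicin-cleared, then incubated overnight at 37°C with inhibitors plus 5 µg/ml gentamicin; DMSO as negative control, triplicates. Flow cytometry gave % GFP-positive cells and cell count (viability surrogate); hits by plate z-score (MRSA ≤ -2, HeLa count ≥ -3).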

Data set [2] has as its system HeLa cells. Nature of the data set: Compound screen by flow cytometry: HeLa cell count as surrogate readout of cell viability (z-scoreHeLa). In kind it is cell-based, human. As to conditions: for cell count rep 1 / z-scoreHeLa rep 1: replicate 1; for cell count rep 2 / z-scoreHeLa rep 2: replicate 2; for cell count rep 3 / z-scoreHeLa rep 3: replicate 3; for z-scoreHeLa mean: mean of 3 replicates. An outline of the steps:
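HeLa cells were infected with GFP-MRSA (mean MOI 6.8 ± 4.6) for 1 h, and extracellular bacteria were killed with 30 µg/ml gentamicin. Cells were then incubated overnight with kinase inhibitors in 5 µg/ml gentamicin, in triplicate against DMSO controls. Flow-cytometric cell count served as a viability surrogate, expressed as a plate z-score.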
A general note: Flow cytometry measures light scatter and fluorescence of single cells or particles in a stream.

Where [3] appears, read: PKIS compounds raw data, MRSA-infected HeLa cells.
The mark [4] stands for this setting: Yes/No: effect without cell death.
The mark [5] stands for this setting: compound screen, MRSA-infected HeLa cells.
Setting [6] is: PKIS compounds raw data, HeLa cell count.
Setting [7] is: compound screen, HeLa cell count.
The mark [8] stands for this setting: PKIS compound screen raw data, MRSA-infected HeLa cells.
[9] abbreviates: PKIS compound screen, MRSA-infected HeLa cells.
[10] abbreviates: PKIS compound screen, Yes/No call.
Where [11] appears, read: PKIS compound screen, Yes/No call (effect without cell death).
[12] abbreviates: PKIS compound screen raw data, HeLa cell count.
Where [13] appears, read: PKIS compound screen, HeLa cell count.

On to `CCNC(=O)O[C@H]1CN[C@H](C#Cc2cc3ncnc(Nc4ccc(OCc5cccc(F)c5)c(Cl)c4)c3s2)C1` [GSK192082A], for which, in data set [1] (setting [3]), the “%GFP+ rep 1” value is on record as 6.9%, the “%GFP+ rep 2” value amounted to 7.5% and the “%GFP+ rep 3” value amounted to 8.8%. For the same compound, the effect entry in data set [1] (Yes/No call from z-scoreMRSA+) is reported as “Yes”. Further, the hit result in data set [1] (setting [4]) is listed as “Yes”. Also, in data set [1] (setting [5]), the “z-scoreMRSA+ mean” value is reported as -2.04, the “z-scoreMRSA+ rep 1” value was -2.01, the “z-scoreMRSA+ rep 2” value was -2.02 and the “z-scoreMRSA+ rep 3” value is recorded as -2.09. In data set [2] (setting [6]), the “cell count rep 1” value came out at 3041, the “cell count rep 2” value was 2947 and the “cell count rep 3” value was found to be 5819. Further, the cell death result in data set [2] (Yes/No call from z-scoreHeLa) was “No”. In data set [2] (setting [7]), the z-scoreHeLa mean is given as -1.04, the “z-scoreHeLa rep 1” value is recorded as -1.57, the “z-scoreHeLa rep 2” value is reported as -1.00 and the “z-scoreHeLa rep 3” value was -0.55.

On to `Oc1ccc2ncnc(Nc3ccc(OCc4ccccc4)cc3)c2c1` [GI262866A], for which, in data set [1] (setting [3]), the “%GFP+ rep 1” value is listed as 22.5%, the “%GFP+ rep 2” value is 22.3% and the “%GFP+ rep 3” value turned out to be 21.5%. Moreover, the effect entry in data set [1] (Yes/No call from z-scoreMRSA+) is reported as “No”. Further, the hit result in data set [1] (setting [4]) was “No”. For the same compound, in data set [1] (setting [5]), the “z-scoreMRSA+ mean” value is on record as -0.31, the “z-scoreMRSA+ rep 1” value is given as -0.65, the “z-scoreMRSA+ rep 2” value is on record as -0.0758 and the “z-scoreMRSA+ rep 3” value is on record as -0.21. Also, in data set [2] (setting [6]), the “cell count rep 1” value worked out at 5744, the “cell count rep 2” value was found to be 4904 and the “cell count rep 3” value came to 6919. In data set [2] (Yes/No call from z-scoreHeLa), the cell death result was “No”. Further, in data set [2] (setting [7]), the z-scoreHeLa mean is given as 0.84, the “z-scoreHeLa rep 1” value was 1.00, the “z-scoreHeLa rep 2” value is reported as 0.46 and the “z-scoreHeLa rep 3” value came to 1.06.

For the compound `COc1ccc(Nc2nccc(N3CCC(NC(=O)Nc4cccc(OC)c4)C3)n2)cc1` (centres unmarked) [GSK1379742A], in data set [1] (setting [8]), the “%GFP+ rep 1” value amounted to 17.9%, the “%GFP+ rep 2” value worked out at 19.2% and the “%GFP+ rep 3” value is reported as 19.1%. In data set [1] (setting [9]), the “z-scoreMRSA+ mean” value is 0.00235, the “z-scoreMRSA+ rep 1” value is 0.0133, the “z-scoreMRSA+ rep 2” value amounted to 0.20 and the “z-scoreMRSA+ rep 3” value is listed as -0.21. Besides, the effect entry in data set [1] (setting [10]) is recorded as “No”. Further, in data set [1] (setting [11]), the hit entry is “No”. In addition, in data set [1] (PKIS compound screen, Yes/No call on z-scoreMRSA+), the effect entry is “No”. In data set [1] (PKIS compound screen), the “z-scoreMRSA+ mean” value was 0.33, the “z-scoreMRSA+ rep 1” value was -0.05, the “z-scoreMRSA+ rep 2” value is 0.88 and the “z-scoreMRSA+ rep 3” value is on record as 0.15. Further, in data set [1] (setting [3]), the “%GFP+ rep 1” value was 26.8%, the “%GFP+ rep 2” value is on record as 30.6% and the “%GFP+ rep 3” value turned out to be 28.1%. For the same compound, in data set [2] (setting [12]), the “cell count rep 1” value is 25651, the “cell count rep 2” value came out at 33132 and the “cell count rep 3” value amounted to 39377. For the same compound, in data set [2] (setting [13]), the z-scoreHeLa mean was found to be 0.12, the “z-scoreHeLa rep 1” value was 0.84, the “z-scoreHeLa rep 2” value is recorded as -0.31 and the “z-scoreHeLa rep 3” value is given as -0.18. Moreover, the cell death result in data set [2] (setting [10]) is listed as “No”. Besides, in data set [2] (PKIS compound screen, Yes/No call on z-scoreHeLa), the cell death entry is “No”. Moreover, in data set [2] (PKIS compound screen), the z-scoreHeLa mean worked out at 1.53, the “z-scoreHeLa rep 1” value was found to be 1.56, the “z-scoreHeLa rep 2” value stood at 0.68 and the “z-scoreHeLa rep 3” value came out at 2.36. In addition, in data set [2] (setting [6]), the “cell count rep 1” value is reported as 8641, the “cell count rep 2” value is recorded as 7027 and the “cell count rep 3” value was 9326.

Take `CC(C(=O)NC1CCN(c2ccnc(Nc3ccc(F)cc3)n2)C1)c1ccc(Cl)cc1` (centres unmarked) [GSK1379713A]: in data set [1] (setting [8]), the “%GFP+ rep 1” value came out at 27.3%, the “%GFP+ rep 2” value was 23.1% and the “%GFP+ rep 3” value is recorded as 24.4%. Moreover, the effect entry in data set [1] (Yes/No call from z-scoreMRSA+) is on record as “No”. In data set [1] (setting [4]), the hit result was “No”. In data set [1] (setting [5]), the “z-scoreMRSA+ mean” value is listed as 0.42, the “z-scoreMRSA+ rep 1” value is reported as 0.47, the “z-scoreMRSA+ rep 2” value came to 0.12 and the “z-scoreMRSA+ rep 3” value came out at 0.66. For the same compound, in data set [2] (setting [12]), the “cell count rep 1” value is 6297, the “cell count rep 2” value worked out at 5528 and the “cell count rep 3” value came to 7616. For the same compound, the cell death entry in data set [2] (Yes/No call from z-scoreHeLa) is reported as “No”. Further, in data set [2] (setting [7]), the z-scoreHeLa mean is 1.28, the “z-scoreHeLa rep 1” value came out at 1.40, the “z-scoreHeLa rep 2” value is on record as 0.94 and the “z-scoreHeLa rep 3” value was 1.50.

`COc1ccc2ncnc(Nc3ccc(OCc4ccccc4)cc3)c2c1` [GI261520A]: the effect result in data set [1] (setting [10]) was “No”. The hit entry in data set [1] (setting [11]) is listed as “No”. Further, in data set [1] (PKIS compound screen), the “z-scoreMRSA+ mean” value is on record as -0.60, the “z-scoreMRSA+ rep 1” value is recorded as -0.44, the “z-scoreMRSA+ rep 2” value is recorded as -0.0319 and the “z-scoreMRSA+ rep 3” value is recorded as -1.33. In data set [1] (setting [3]), the “%GFP+ rep 1” value was 11.8%, the “%GFP+ rep 2” value stood at 13.4% and the “%GFP+ rep 3” value was determined as 11.4%. The cell death result in data set [2] (setting [10]) is “No”. In data set [2] (PKIS compound screen), the z-scoreHeLa mean amounted to 1.78, the “z-scoreHeLa rep 1” value turned out to be 1.21, the “z-scoreHeLa rep 2” value is given as 1.33 and the “z-scoreHeLa rep 3” value turned out to be 2.78. Besides, in data set [2] (setting [6]), the “cell count rep 1” value worked out at 6115, the “cell count rep 2” value is 6030 and the “cell count rep 3” value was 12782.

In the case of `Cc1ccc(C(=O)Nc2ccc(Nc3ccnc4cc(-c5ccccn5)ccc34)cc2O)cc1` [GW440146A], in data set [1] (setting [8]), the “%GFP+ rep 1” value came out at 19.0%, the “%GFP+ rep 2” value was determined as 18.0% and the “%GFP+ rep 3” value amounted to 19.2%. Moreover, the effect entry in data set [1] (Yes/No call from z-scoreMRSA+) is “No”. In data set [1] (setting [4]), the hit entry is given as “No”. In data set [1] (setting [5]), the “z-scoreMRSA+ mean” value is -1.16, the “z-scoreMRSA+ rep 1” value is -1.46, the “z-scoreMRSA+ rep 2” value was -1.12 and the “z-scoreMRSA+ rep 3” value is recorded as -0.90. In data set [2] (setting [12]), the “cell count rep 1” value was 4799, the “cell count rep 2” value stood at 4726 and the “cell count rep 3” value is recorded as 6030. Besides, in data set [2] (Yes/No call from z-scoreHeLa), the cell death entry is on record as “No”. Also, in data set [2] (setting [7]), the z-scoreHeLa mean stood at 0.38, the “z-scoreHeLa rep 1” value stood at 0.32, the “z-scoreHeLa rep 2” value is 0.33 and the “z-scoreHeLa rep 3” value worked out at 0.50.

Regarding `N#Cc1ccc(CCNc2nccc(-c3cccc(CN4CCNCC4)c3)n2)cc1` [GSK2137462A], in data set [1] (setting [8]), the “%GFP+ rep 1” value turned out to be 14.3%, the “%GFP+ rep 2” value is on record as 14.4% and the “%GFP+ rep 3” value is given as 16.1%. For the same compound, in data set [1] (setting [10]), the effect result was “No”. Besides, in data set [1] (setting [11]), the hit result is given as “No”. Further, in data set [1] (PKIS compound screen), the “z-scoreMRSA+ mean” value was -0.14, the “z-scoreMRSA+ rep 1” value is on record as -0.07, the “z-scoreMRSA+ rep 2” value is on record as -0.12 and the “z-scoreMRSA+ rep 3” value is recorded as -0.24. Also, in data set [1] (setting [3]), the “%GFP+ rep 1” value was 26.7%, the “%GFP+ rep 2” value turned out to be 25.4% and the “%GFP+ rep 3” value is given as 26.0%. For the same compound, in data set [1] (Yes/No call from z-scoreMRSA+), the effect result is listed as “No”. Moreover, the hit result in data set [1] (setting [4]) is recorded as “No”. Further, in data set [1] (setting [5]), the “z-scoreMRSA+ mean” value is listed as -1.32, the “z-scoreMRSA+ rep 1” value is -1.20, the “z-scoreMRSA+ rep 2” value is reported as -1.37 and the “z-scoreMRSA+ rep 3” value is given as -1.40. Also, in data set [2] (setting [12]), the “cell count rep 1” value was determined as 48589, the “cell count rep 2” value is on record as 40019 and the “cell count rep 3” value is on record as 40009. In data set [2] (setting [10]), the cell death result is listed as “No”. In addition, in data set [2] (PKIS compound screen), the z-scoreHeLa mean came out at 0.08, the “z-scoreHeLa rep 1” value is on record as -0.12, the “z-scoreHeLa rep 2” value is 0.13 and the “z-scoreHeLa rep 3” value is 0.23. Besides, in data set [2] (setting [6]), the “cell count rep 1” value is reported as 5843, the “cell count rep 2” value is on record as 6203 and the “cell count rep 3” value was 5956. Moreover, the cell death entry in data set [2] (Yes/No call from z-scoreHeLa) is listed as “No”. In addition, in data set [2] (setting [7]), the z-scoreHeLa mean was 3.25, the “z-scoreHeLa rep 1” value was determined as 3.12, the “z-scoreHeLa rep 2” value was found to be 2.53 and the “z-scoreHeLa rep 3” value is listed as 4.11.
